Assay [1] addresses ErbB2 insYVMA (HER2-YVMA, SEQ ID NO: 2) (Homo sapiens, UniProt P04626, INS775YVMA/P1170A). Description: biochemical. The note with it: ErbB2 insYVMA enzyme assay.
A further assay concerns the target EGFR (Homo sapiens (Human), UniProt P00533). Description: ErbB enzyme assay (CisBio HTRF KinEASE-TK), Assay 3. It counts as biochemical. A digest of the protocol:
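IC50 was taken where a 4-parameter logistic fit crossed 50 percent of control (DMSO 100, pre-quenched 0), read by ratiometric HTRF. Reactions ran 30 min at 22 °C with 1 mM ATP and 250 nM TK-substrate biotin in pH 7.4 HEPES buffer with MgCl2, Triton X-100 and 2% DMSO.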

Another assay concerns the target EGFR wild type (EGFR WT) (Homo sapiens (Human), UniProt P00533). Nature of the assay: Cellular phosphorylation assay, EGF-stimulated EGFR phosphorylation in engineered NIH 3T3 cells, Phospho-EGFR DuoSet IC ELISA, Assay 5. The format is cell-based. The procedure:
NIH 3T3 cells were engineered to express EGFR wild type (EGFR WT; Assay 5, no footnote) with constructs obtained from GenScript and grown in DMEM supplemented with 10% fetal bovine serum and 15 μg/ml blasticidin. Cells were plated in 96-well plates at 20,000 cells/well and allowed to attach overnight at 37° C./5% CO2. Serially diluted compounds were added to the plates for 1 hour at 37° C./5% CO2. EGFR WT cells were stimulated with 100 ng/ml rEGF for an additional 10 minutes at 37° C./5% CO2. After compound incubation, medium was removed from the cells, which were then lysed in 100 μL/well lysis buffer according to the manufacturer's protocol (R&D Systems, DYC1095, Human Phospho-EGFR DuoSet IC ELISA). Same protocol was followed to determine the total levels of phospho-EGFR by measuring the optical density of each well using a VersaMax microplate reader. Curves were then generated and IC50 values calculated.

In assay [2] the target is ErbB2 with Exon 20 YVMA insertion (HER2-YVMA) (Homo sapiens (Human), UniProt P04626, INS775YVMA). Description: Cellular phosphorylation assay, constitutive ErbB2 phosphorylation (Y1196) in engineered NIH 3T3 cells, Assay 4. The format is cell-based. A digest of the protocol:
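In-cell Western in NIH 3T3 cells carrying ErbB2 exon 20 YVMA insertion, with no ligand stimulation. One hour compound exposure at 37 °C before fixation and anti-pY1196 plus GAPDH staining with dual-wavelength fluorescence. IC50 derived after GAPDH normalization.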

Another assay concerns the target ErbB2 WT (Homo sapiens (Human), UniProt P04626). Description: ErbB enzyme assay (CisBio HTRF KinEASE-TK), Assay 2. It counts as biochemical. A digest of the protocol: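 Readout is HTRF KinEASE-TK, using Sa-XL665 and cryptate antibody for 1 h at 22 °C, as percent of control between DMSO-only (100) and pre-quenched (0) reactions. The kinase reaction runs 30 min at 22 °C with 1 mM ATP and 250 nM biotinylated TK substrate, in HEPES pH 7.4 with MgCl2 and 2% DMSO.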

Read-outs that look alike come from different tables or passages of the source.

Sequence of ErbB2 insYVMA (HER2-YVMA, SEQ ID NO: 2) (P04626 with tags, fused parts or gaps INS775YVMA/P1170A limits assumed): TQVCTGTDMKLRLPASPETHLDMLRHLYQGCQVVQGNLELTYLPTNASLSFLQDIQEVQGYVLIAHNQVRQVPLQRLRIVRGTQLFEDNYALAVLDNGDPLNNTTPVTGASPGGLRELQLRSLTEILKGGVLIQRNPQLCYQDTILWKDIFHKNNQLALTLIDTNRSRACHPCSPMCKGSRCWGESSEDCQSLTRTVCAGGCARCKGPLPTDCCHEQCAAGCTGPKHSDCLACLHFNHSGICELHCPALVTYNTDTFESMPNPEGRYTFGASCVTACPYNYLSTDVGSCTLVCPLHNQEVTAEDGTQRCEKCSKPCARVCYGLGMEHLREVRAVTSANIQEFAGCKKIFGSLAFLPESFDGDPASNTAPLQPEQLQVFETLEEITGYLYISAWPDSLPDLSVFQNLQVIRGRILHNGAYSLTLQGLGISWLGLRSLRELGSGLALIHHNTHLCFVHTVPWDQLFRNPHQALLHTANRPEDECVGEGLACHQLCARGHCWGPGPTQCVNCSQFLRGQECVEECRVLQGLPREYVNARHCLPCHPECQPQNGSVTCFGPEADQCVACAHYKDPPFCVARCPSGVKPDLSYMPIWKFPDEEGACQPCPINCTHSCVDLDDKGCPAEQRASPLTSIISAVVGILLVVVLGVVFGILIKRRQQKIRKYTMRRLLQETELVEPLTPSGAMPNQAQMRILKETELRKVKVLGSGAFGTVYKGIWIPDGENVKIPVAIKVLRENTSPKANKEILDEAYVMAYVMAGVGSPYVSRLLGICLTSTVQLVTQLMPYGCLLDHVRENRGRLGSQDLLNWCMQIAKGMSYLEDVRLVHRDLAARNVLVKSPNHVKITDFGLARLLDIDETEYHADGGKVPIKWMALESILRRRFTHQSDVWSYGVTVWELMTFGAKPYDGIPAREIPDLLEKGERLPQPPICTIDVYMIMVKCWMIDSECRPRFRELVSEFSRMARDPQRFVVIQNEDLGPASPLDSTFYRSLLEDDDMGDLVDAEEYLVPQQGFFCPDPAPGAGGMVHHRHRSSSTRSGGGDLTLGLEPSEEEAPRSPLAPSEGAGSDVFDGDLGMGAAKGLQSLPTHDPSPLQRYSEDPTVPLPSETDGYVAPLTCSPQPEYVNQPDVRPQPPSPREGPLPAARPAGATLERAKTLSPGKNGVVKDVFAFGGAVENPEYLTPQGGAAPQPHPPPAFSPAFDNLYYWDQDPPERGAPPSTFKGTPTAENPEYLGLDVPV
Sequence of EGFR wild type (EGFR WT) (P00533 25-1210): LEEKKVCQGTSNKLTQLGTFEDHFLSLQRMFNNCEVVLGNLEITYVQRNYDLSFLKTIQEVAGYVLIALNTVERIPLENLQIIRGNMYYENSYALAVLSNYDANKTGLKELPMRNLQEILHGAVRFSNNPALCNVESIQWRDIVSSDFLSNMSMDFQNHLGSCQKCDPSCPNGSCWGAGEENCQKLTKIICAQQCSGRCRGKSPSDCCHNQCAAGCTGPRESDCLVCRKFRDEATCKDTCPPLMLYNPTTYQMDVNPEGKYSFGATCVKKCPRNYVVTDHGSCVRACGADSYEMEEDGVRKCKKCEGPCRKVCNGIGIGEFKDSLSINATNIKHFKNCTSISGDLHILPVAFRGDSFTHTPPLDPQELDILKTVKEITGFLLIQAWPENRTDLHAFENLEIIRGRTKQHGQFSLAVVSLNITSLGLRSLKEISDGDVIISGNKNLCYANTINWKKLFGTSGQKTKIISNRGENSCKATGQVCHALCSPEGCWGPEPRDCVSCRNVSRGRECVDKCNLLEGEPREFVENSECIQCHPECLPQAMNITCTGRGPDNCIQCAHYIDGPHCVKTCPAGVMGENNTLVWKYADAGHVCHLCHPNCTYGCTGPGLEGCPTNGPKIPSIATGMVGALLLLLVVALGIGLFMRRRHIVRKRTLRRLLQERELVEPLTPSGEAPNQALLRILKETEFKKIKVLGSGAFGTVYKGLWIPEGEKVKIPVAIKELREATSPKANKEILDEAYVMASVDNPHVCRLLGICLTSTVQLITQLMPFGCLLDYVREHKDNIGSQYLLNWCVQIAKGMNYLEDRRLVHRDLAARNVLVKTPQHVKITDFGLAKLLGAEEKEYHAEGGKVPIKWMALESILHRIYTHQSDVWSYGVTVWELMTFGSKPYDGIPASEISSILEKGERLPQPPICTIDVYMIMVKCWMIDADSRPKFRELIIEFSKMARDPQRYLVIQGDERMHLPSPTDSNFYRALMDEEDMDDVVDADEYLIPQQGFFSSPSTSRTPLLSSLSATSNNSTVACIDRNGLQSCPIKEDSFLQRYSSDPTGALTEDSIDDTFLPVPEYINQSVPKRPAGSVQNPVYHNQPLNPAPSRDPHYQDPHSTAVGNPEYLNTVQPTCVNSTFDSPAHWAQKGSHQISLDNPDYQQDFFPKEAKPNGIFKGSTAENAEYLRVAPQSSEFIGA
Sequence of EGFR (P00533 25-1210): as above
Sequence of ErbB2 with Exon 20 YVMA insertion (HER2-YVMA) (P04626 other isoform, or with tags, fused parts or gaps ins YVMA behind 775): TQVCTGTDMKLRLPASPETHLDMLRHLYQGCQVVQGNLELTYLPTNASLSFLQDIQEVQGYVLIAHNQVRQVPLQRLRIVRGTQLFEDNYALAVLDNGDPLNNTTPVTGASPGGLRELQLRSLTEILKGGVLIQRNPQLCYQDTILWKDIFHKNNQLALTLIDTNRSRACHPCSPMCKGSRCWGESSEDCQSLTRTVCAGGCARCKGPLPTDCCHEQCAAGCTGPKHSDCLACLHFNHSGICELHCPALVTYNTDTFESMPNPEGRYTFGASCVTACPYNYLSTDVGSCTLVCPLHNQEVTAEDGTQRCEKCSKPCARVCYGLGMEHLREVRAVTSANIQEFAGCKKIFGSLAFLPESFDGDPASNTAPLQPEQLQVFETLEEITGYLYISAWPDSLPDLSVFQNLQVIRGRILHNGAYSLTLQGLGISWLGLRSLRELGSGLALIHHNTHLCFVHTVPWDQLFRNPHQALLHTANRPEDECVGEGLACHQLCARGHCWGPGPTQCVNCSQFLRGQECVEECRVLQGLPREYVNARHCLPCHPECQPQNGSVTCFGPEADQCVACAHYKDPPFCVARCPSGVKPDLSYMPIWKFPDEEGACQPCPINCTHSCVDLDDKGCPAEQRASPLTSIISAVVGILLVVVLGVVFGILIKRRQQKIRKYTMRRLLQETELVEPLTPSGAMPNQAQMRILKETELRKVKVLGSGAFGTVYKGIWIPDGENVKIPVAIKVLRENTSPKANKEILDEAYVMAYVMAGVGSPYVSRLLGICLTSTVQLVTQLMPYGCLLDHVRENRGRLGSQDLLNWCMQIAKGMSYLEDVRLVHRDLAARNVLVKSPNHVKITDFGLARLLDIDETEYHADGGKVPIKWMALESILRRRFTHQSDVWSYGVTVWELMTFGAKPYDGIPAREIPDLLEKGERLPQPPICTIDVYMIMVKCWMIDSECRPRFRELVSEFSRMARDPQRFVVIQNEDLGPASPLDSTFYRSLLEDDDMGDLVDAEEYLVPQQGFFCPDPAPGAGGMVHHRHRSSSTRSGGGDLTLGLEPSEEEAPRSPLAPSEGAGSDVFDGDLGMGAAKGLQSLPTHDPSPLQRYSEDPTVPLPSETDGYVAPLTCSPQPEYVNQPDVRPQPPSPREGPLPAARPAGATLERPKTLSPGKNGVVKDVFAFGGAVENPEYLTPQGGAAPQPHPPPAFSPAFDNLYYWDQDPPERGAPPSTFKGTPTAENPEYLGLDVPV

On to `CON(C)c1ncc2ncnc(Nc3ccc(Oc4ccc5c(c4)ncn5C)c(C)c3)c2n1` [Example 22, 6-(methoxy(methyl)amino)-N-(3-methyl-4-((1-methyl-1H-benzo[d]imidazol-5-yl)oxy)phenyl)pyrimido[5,4-d]pyrimidin-4-amine], for which the concentration for half-maximal inhibition (IC50) in assay [1] (read-out: Assay 1 IC50) is 25.5 nM; on EGFR it was 8.7 µM; at EGFR wild type (EGFR WT) it was no less than 5 µM; in assay [2], 0.013 µM; at ErbB2 WT it was 0.0524 µM.
Consider `Cc1cc(Nc2ncnc3cnc(N4CC5(COC5)C4)nc23)ccc1Oc1ccc2c(c1)ncn2C` [Example 26, N-(3-methyl-4-((1-methyl-1H-benzo[d]imidazol-5-yl)oxy)phenyl)-6-(2-oxa-6-azaspiro[3.3]heptan-6-yl)pyrimido[5,4-d]pyrimidin-4-amine], for which the 50% inhibitory concentration (IC50) in assay [1] (read-out: Assay 1 IC50) is 85.6 nM; at EGFR, no less than 10 µM; against EGFR wild type (EGFR WT) it was no less than 5 µM; in assay [2] it was 0.0622 µM; against ErbB2 WT, 0.507 µM.
For the compound `Cc1cc(Nc2ncnc3cnc(N4CCC45COC5)nc23)ccc1Oc1ccc2c(c1)ncn2C` [Example 27, N-(3-methyl-4-((1-methyl-1H-benzo[d]imidazol-5-yl)oxy)phenyl)-6-(6-oxa-1-azaspiro[3.3]heptan-1-yl)pyrimido[5,4-d]pyrimidin-4-amine], the IC50 in assay [1] (read-out: Assay 1 IC50) is 20 nM; on EGFR, no less than 10 µM; at EGFR wild type (EGFR WT), no less than 5 µM; in assay [2], 0.0093 µM; against ErbB2 WT, 0.0508 µM.
In the same order, the values of `Cc1cc(Nc2ncnc3cnc(N4CCN(C)S4(=O)=O)nc23)ccc1Oc1ccc2c(c1)ncn2C` [Example 29, 2-methyl-5-(8-((3-methyl-4-((1-methyl-1H-benzo[d]imidazol-5-yl)oxy)phenyl)amino)pyrimido[5,4-d]pyrimidin-2-yl)-1,2,5-thiadiazolidine 1,1-dioxide] are 37.8 nM, no less than 10 µM, no less than 5 µM, 0.0206 µM and 0.0659 µM.
`Cc1cc(Nc2ncnc3cnc(NC4CC(F)(F)C4)nc23)ccc1Oc1ccc2c(c1)ncn2C` [Example 30, N2-(3,3-difluorocyclobutyl)-N8-(3-methyl-4-((1-methyl-1H-benzo[d]imidazol-5-yl)oxy)phenyl)pyrimido[5,4-d]pyrimidine-2,8-diamine]: the half-inhibitory concentration (IC50) in assay [1] (read-out: Assay 1 IC50) is 104 nM; against EGFR, no less than 10 µM; on EGFR wild type (EGFR WT), no less than 5 µM; in assay [2], 0.165 µM; at ErbB2 WT it was 0.196 µM.
Turning to `Cc1cc(Nc2ncnc3cnc(N4CC(F)(F)C4)nc23)ccc1Oc1ccc2c(c1)ncn2C` [Example 38, 6-(3,3-difluoroazetidin-1-yl)-N-(3-methyl-4-((1-methyl-1H-benzo[d]imidazol-5-yl)oxy)phenyl)pyrimido[5,4-d]pyrimidin-4-amine], the half-inhibitory concentration (IC50) was 183 nM in assay [1] (read-out: Assay 1 IC50); no less than 10 µM against EGFR; no less than 5 µM at EGFR wild type (EGFR WT); 0.0651 µM in assay [2]; 0.403 µM on ErbB2 WT.
As for `Cc1ncc(-c2ncc3ncnc(Nc4ccc(Oc5ccc6c(c5)ncn6C)c(C)c4)c3n2)s1` [Example 42, N-(3-methyl-4-((1-methyl-1H-benzo[d]imidazol-5-yl)oxy)phenyl)-6-(2-methylthiazol-5-yl)pyrimido[5,4-d]pyrimidin-4-amine], the half-inhibitory concentration (IC50) is 58.2 nM in assay [1] (read-out: Assay 1 IC50); no less than 10 µM at EGFR; no less than 5 µM on EGFR wild type (EGFR WT); 0.0168 µM in assay [2]; 0.176 µM against ErbB2 WT.
Take `Cc1cc(Nc2ncnc3cnc(N4CCC4)nc23)ccc1Oc1ccc2scnc2c1` [Example 44, 6-(azetidin-1-yl)-N-(4-(benzo[d]thiazol-5-yloxy)-3-methylphenyl)pyrimido[5,4-d]pyrimidin-4-amine 2,2,2-trifluoroacetate]: the half-maximal inhibitory concentration (IC50) in assay [1] (read-out: Assay 1 IC50) is 103 nM; on EGFR it was 3.31 µM; against EGFR wild type (EGFR WT), no less than 5 µM; in assay [2], 0.0706 µM; at ErbB2 WT it was 0.315 µM.
Take `CCOc1ncc2ncnc(Nc3ccc(Oc4ccc5scnc5c4)c(C)c3)c2n1` [Example 46, N-(4-(benzo[d]thiazol-5-yloxy)-3-methylphenyl)-6-ethoxpyrimido[5,4-d]pyrimidin-4-amine 2,2,2-trifluoroacetate]: the concentration for half-maximal inhibition (IC50) is 95.2 nM in assay [1] (read-out: Assay 1 IC50); 4.25 µM against EGFR; no less than 5 µM on EGFR wild type (EGFR WT); 0.566 µM in assay [2]; 0.76 µM against ErbB2 WT.
In the same order, the values of `Cc1cc(Nc2ncnc3cnc(N4CCOC5(CC5)C4)nc23)ccc1Oc1ccc2c(c1)ncn2C` [Example 58, N-(3-methyl-4-((1-methyl-1H-benzo[d]imidazol-5-yl)oxy)phenyl)-6-(4-oxa-7-azaspiro[2.5]octan-7-yl)pyrimido[5,4-d]pyrimidin-4-amine] are 62.5 nM, no less than 10 µM, no less than 5 µM, 0.0106 µM and 0.123 µM.
In the case of `COC[C@@H](C)Nc1ncc2ncnc(Nc3ccc(Oc4ccc5c(c4)ncn5C)c(C)c3)c2n1` [Example 61, (R)—N2-(1-methoxypropan-2-yl)-N8-(3-methyl-4-((1-methyl-1H-benzo[d]imidazol-5-yl)oxy)phenyl)pyrimido[5,4-d]pyrimidine-2,8-diamine], the IC50 in assay [1] (read-out: Assay 1 IC50) is 36.9 nM; against EGFR, no less than 10 µM; on EGFR wild type (EGFR WT) it was no less than 5 µM; in assay [2], 0.0495 µM; at ErbB2 WT it was 0.107 µM.
Regarding `COC[C@H](C)Nc1ncc2ncnc(Nc3ccc(Oc4ccc5c(c4)ncn5C)c(C)c3)c2n1` [Example 62, (S)—N2-(1-methoxypropan-2-yl)-N8-(3-methyl-4-((1-methyl-1H-benzo[d]imidazol-5-yl)oxy)phenyl)pyrimido[5,4-d]pyrimidine-2,8-diamine], the IC50 in assay [1] (read-out: Assay 1 IC50) is 39.8 nM; against EGFR, no less than 10 µM; against EGFR wild type (EGFR WT), no less than 5 µM; in assay [2] it was 0.0271 µM; against ErbB2 WT it was 0.112 µM.
For the compound `Cc1c(Oc2ccc3c(c2)ncn3C)ccc(Nc2ncnc3cnc(N(C)C)nc23)c1F` [Example 71, N8-(2-fluoro-3-methyl-4-((1-methyl-1H-benzo[d]imidazol-5-yl)oxy)phenyl)-N2,N2-dimethylpyrimido[5,4-d]pyrimidine-2,8-diamine 2,2,2-trifluoroacetate], the half-inhibitory concentration (IC50) in assay [1] (Assay 1 IC50 (nM)) was 70.2 nM; against EGFR it was no less than 10 µM; against EGFR wild type (EGFR WT) it was no less than 5 µM; in assay [2], 0.0766 µM; against ErbB2 WT, 0.299 µM.
In the case of `Cc1cc(Nc2ncnc3cnc(N4CCOCC4)nc23)ccc1Oc1ccc2c(c1)ncn2C1CC1` [Example 73, N-(4-((1-cyclopropyl-1H-benzo[d]imidazol-5-yl)oxy)-3-methylphenyl)-6-morpholinopyrimido[5,4-d]pyrimidin-4-amine 2,2,2-trifluoroacetate], the half-maximal inhibitory concentration (IC50) in assay [1] (Assay 1 IC50 (nM)) is 78 nM; on EGFR it was no less than 10 µM; against EGFR wild type (EGFR WT), no less than 5 µM; in assay [2], 0.0475 µM; against ErbB2 WT, 0.163 µM.
On to `Cc1cc(Nc2ncnc3cnc(N4CCN(CC(F)(F)F)CC4)nc23)ccc1Oc1ccc2c(c1)ncn2C` [Example 85, N-(3-methyl-4-((1-methyl-1H-benzo[d]imidazol-5-yl)oxy)phenyl)-6-(4-(2,2,2-trifluoroethyl)piperazin-1-yl)pyrimido[5,4-d]pyrimidin-4-amine], for which the IC50 in assay [1] (read-out: Assay 1 IC50) was 204 nM; on EGFR, no less than 10 µM; against EGFR wild type (EGFR WT), no less than 5 µM; in assay [2], 0.13 µM; against ErbB2 WT, 0.726 µM.
